Experimental data taken from ChEMBL document CHEMBL1132667, “P2-achiral, P'-extended alpha-ketoamide inhibitors of calpain I” (Bioorg Med Chem Lett, 1999).
pKi: −log10 of the molar value.

Molecular target: T1, Calpain-1 catalytic subunit (Homo sapiens, UniProt P07384)
T1 sequence (P07384 whole entry): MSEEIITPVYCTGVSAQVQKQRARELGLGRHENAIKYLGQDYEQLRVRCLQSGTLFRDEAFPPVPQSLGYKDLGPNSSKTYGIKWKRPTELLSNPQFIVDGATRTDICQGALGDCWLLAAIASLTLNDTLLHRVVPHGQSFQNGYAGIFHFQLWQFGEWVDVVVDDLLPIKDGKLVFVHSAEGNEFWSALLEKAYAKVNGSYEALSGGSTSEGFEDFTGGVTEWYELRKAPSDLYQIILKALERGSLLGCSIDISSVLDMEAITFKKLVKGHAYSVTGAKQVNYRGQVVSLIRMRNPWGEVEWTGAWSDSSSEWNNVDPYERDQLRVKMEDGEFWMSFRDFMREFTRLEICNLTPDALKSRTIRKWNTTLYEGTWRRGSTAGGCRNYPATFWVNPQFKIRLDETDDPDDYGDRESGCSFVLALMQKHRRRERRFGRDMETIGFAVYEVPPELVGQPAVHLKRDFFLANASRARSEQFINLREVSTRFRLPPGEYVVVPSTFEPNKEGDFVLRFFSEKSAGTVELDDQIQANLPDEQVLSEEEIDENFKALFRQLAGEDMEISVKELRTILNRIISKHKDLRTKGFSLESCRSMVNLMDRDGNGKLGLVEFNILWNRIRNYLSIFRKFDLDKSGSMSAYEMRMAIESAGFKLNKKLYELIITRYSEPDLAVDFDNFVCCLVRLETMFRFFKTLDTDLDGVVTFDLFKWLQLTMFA
Assay: Inhibitory activity against recombinant human calpain I

| pKi | SMILES |
| --- | --- |
| 8.10 | N#Cc1cccc(-c2ccc(S(=O)(=O)NCCNC(=O)C(=O)[C@H](Cc3ccccc3)NC(=O)c3c(Cl)cccc3Cl)s2)c1 |
| 7.31 | O=C(NCCNS(=O)(=O)c1ccc(-c2ccccn2)s1)C(=O)[C@H](Cc1ccccc1)NC(=O)c1cc(Cl)ccc1Cl |
| 7.15 | CC(=O)N1CCN(Cc2ccc(S(=O)(=O)NCCNC(=O)C(=O)[C@H](Cc3ccccc3)NC(=O)c3c(Cl)cccc3Cl)cc2)CC1 |
| 7.59 | O=C(NCCNS(=O)(=O)c1ccc(-c2ccccn2)s1)C(=O)[C@H](Cc1ccccc1)NC(=O)c1c(Cl)cccc1Cl |
| 7.85 | CC(=O)NCc1cccc(-c2ccc(S(=O)(=O)NCCNC(=O)C(=O)[C@H](Cc3ccccc3)NC(=O)c3c(Cl)cccc3Cl)s2)c1 |
| 7.23 | O=C(NCCNS(=O)(=O)c1ccc(CN2CCN(c3ccccn3)CC2)cc1)C(=O)[C@H](Cc1ccccc1)NC(=O)c1c(Cl)cccc1Cl |
| 7.82 | O=Cc1cccc(-c2ccc(S(=O)(=O)NCCNC(=O)C(=O)[C@H](Cc3ccccc3)NC(=O)c3c(Cl)cccc3Cl)s2)c1 |
| 7.34 | COc1ccc(Cl)c(C(=O)N[C@@H](Cc2ccccc2)C(=O)C(=O)NCCNS(=O)(=O)c2ccc(-c3ccccn3)s2)c1 |
| ~6.44 | O=C(N[C@@H](Cc1ccccc1)C(=O)O)c1c(Cl)cccc1Cl |
| 6.37 | O=C(NCCNS(=O)(=O)c1ccc(-c2ccccn2)s1)C(=O)[C@H](Cc1ccccc1)NC(=O)c1cc(C(F)(F)F)cc(C(F)(F)F)c1 |
| 6.89 | Cc1cccc(C)c1C(=O)N[C@@H](Cc1ccccc1)C(=O)C(=O)NCCNS(=O)(=O)c1ccc(-c2ccccn2)s1 |
| 6.24 | O=C(NCCNS(=O)(=O)c1ccc(-c2ccccn2)s1)C(=O)[C@H](Cc1ccccc1)NC(=O)c1ccccc1 |
| 7.21 | CC(CCC(=O)N[C@@H](Cc1ccccc1)C(=O)C(=O)NCCNS(=O)(=O)c1ccc(-c2ccccn2)s1)c1ccccc1 (some centres not stated) |
| 8.00 | CS(=O)(=O)N[C@H](COCc1ccccc1)C(=O)N[C@@H](Cc1ccccc1)C(=O)C(=O)NCCNS(=O)(=O)c1ccc(-c2ccccn2)s1 |
| 7.85 | O=C(NCCNS(=O)(=O)c1ccc(-c2ccccn2)s1)C(=O)[C@H](Cc1ccccc1)NC(=O)c1c(F)cccc1F |
| < 6.00 | O=C(NCCNS(=O)(=O)c1ccc(-c2ccccn2)s1)C(=O)[C@H](Cc1ccccc1)NC(=O)c1ccc2c(c1)OCO2 |

Molecular target: T1, Calpain-1 catalytic subunit
Assay: Inhibitory activity against recombinant human Calpain 1

| pKi | SMILES |
| --- | --- |
| 5.96 | O=C(CCCc1ccccc1)N[C@@H](Cc1ccccc1)C(=O)C(=O)NCCNS(=O)(=O)c1ccc(-c2ccccn2)s1 |
| 6.38 | CC(C)CC(=O)N[C@@H](Cc1ccccc1)C(=O)C(=O)NCCNS(=O)(=O)c1ccc(-c2ccccn2)s1 |
| 7.68 | O=C(NCCNS(=O)(=O)c1ccc(-c2cccc(CN3CCOCC3)c2)s1)C(=O)[C@H](Cc1ccccc1)NC(=O)c1c(Cl)cccc1Cl |
| 7.68 | CC(C)CCC(=O)N[C@@H](Cc1ccccc1)C(=O)C(=O)NCCNS(=O)(=O)c1ccc(-c2ccccn2)s1 |
| 5.96 | CC(C)C(=O)N[C@@H](Cc1ccccc1)C(=O)C(=O)NCCNS(=O)(=O)c1ccc(-c2ccccn2)s1 |
| 7.24 | O=C(Cc1ccc(Cl)nc1Cl)N[C@@H](Cc1ccccc1)C(=O)C(=O)NCCNS(=O)(=O)c1ccc(-c2ccccn2)s1 |
